Experimental data taken from patent publication US8846012B2, “Melanin production inhibitor” (Pola Chemical Industries Inc., priority 2008, dated 2014).
Converted amounts (≈) assume the structure as drawn. Where two headings read alike, the source gives them in different places.

What was measured:
[1] = tested on: Trichopyton mentagrophytes (ATCC18748); assay: Measurement of antimycotic activity (Alamar Blue growth inhibition of dermatophytes); format: cell-based; conditions: for growth inhibitory effect on Trichopyton mentagrophytes (in words): added at a concentration of 100 μg/mL; for MIC80: read-out: MIC80 Concentration; for inhibition at 0.1563 µg/mL / inhibition at 0.3125 µg/mL / inhibition at 0.625 µg/mL / inhibition at 1.25 µg/mL / inhibition at 2.5 µg/mL / inhibition at 5 µg/mL / inhibition at 10 µg/mL / inhibition at 100 µg/mL: read-out: Growth inhibition rate
Experimental: 10.4 g of RPMI1640 (manufactured by SAFC Biosciences) were dissolved in 900 mL of distilled water, and 34.53 g of a 0.165 M MOPS buffer (manufactured by DOJINDO LABORATORIES) were added and dissolved by stirring.
Dermatophytes (Trichopyton mentagrophytes (ATCC18748)) were inoculated into a 1/10 Sabouraud Dextrose agar medium (manufactured by DIFCO) and cultured at 28° C. for 14 days, and then a conidial suspension was prepared using 0.1% Tween80-including physiological saline. The suspension was filtered through gauze, and the number of the conidia was counted using a hemocytometer and then adjusted to 2.5×10^5/mL with the RPMI1640 medium. The resultant suspension was used as an inoculum.
Compound 5 and clotrimazole were diluted with the RPMI1640 medium to prepare 0.3125, 0.625, 1.25, 2.5, 5, 10, 20, and 200 μg/mL diluted solutions. The diluted solutions having different concentrations were dispensed into a 96-well flat-bottom microplate in an amount of 100 μL per well, and 80 μL of the inoculum and 20 μL of an Alamar Blue solution (manufactured by Nalgene) were further added thereto. Further, 80 μL of the inoculum and 20 μL of the Alamar Blue solution were added to 100 μL of the RPMI1640 medium in growth control wells, and 20 μL of the Alamar Blue solution was added to 180 μL of the RPMI1640 medium in negative control wells. The microplate was placed in a chamber in which the humidity was kept constant, and culture was started at 27° C., and the cells were observed every 24 hours. 120 hours from beginning of culture, i.e., when the growth control became obviously red (reduced form), absorbance measurement at 570 nm was performed using a microplate reader (SPECTRAMAX 250, manufactured by Molecular Device).
The test compounds were tested at the respective concentrations in triplicate. The growth inhibition rate (%) of each of the test compound-added groups was determined by the following equation based on a value calculated by subtracting an average absorbance value of the negative control from an average absorbance value of the growth control and the test compound-added wells. Further, […] (minimum inhibitory concentration; the minimum concentration at which the growth inhibition rate is 80% or more) was calculated from the growth inhibition rate of each test compound. Growth inhibition rate (%)=[1−(average absorbance value in test compound-added wells-average absorbance value of negative control)/(average absorbance value of growth control-average absorbance value of negative control)]×100
Compound 1, Compounds 3 to 6, Compound 40, Compound 41, triphenylmethylamine, triphenylmethanol, triphenylmethane, aminodiphenylmethane, and clotrimazole were diluted with the RPMI1640 medium to prepare 0.3125, 0.625, 1.25, 2.5, 5, 10, 20, and 200 μg/mL diluted solutions. The diluted solutions having different concentrations were dispensed into a 96-well flat-bottom microplate in an amount of 100 μl, per well, and 80 μL of the inoculum and 20 μl, of an Alamar Blue solution (manufactured by Nalgene) were further added thereto. Further, 80 μl, of the inoculum and 20 μl, of the Alamar Blue solution were added to 100 μL of the RPMI1640 medium in growth control wells, and 20 μL of the Alamar Blue solution was added to 180 μL of the RPMI1640 medium in negative control wells. The microplate was placed in a chamber in which the humidity was kept constant, and then culture was started at 27° C., and the cells were observed every 24 hours. 120 hours from beginning of culture, i.e., when the growth control became obviously red (reduced form), absorbance measurement at 570 nm was performed using a microplate reader (SPECTRAMAX 250, manufactured by Molecular Device).
The test compounds were tested at the respective concentrations in triplicate. […]

normal human melanocytes = assay: Melanin production inhibition test using cultured normal human melanocytes (14C-thiouracil incorporation); format: cell-based; conditions: for activity at 2 µM: addition amount 2.0 μM; for activity at 20 µM: treatment concentration 20 μM; for activity at 15 µM: treatment concentration 15 μM
Experimental: The inhibitory effect on melanin production of the melanin production inhibitor of the present invention can be measured using thiouracil which is incorporated specifically into cells in a melanin synthesis process in the cells. For example, the amount of melanin production can be measured by measuring an amount of thiouracil incorporated into cells by measuring an amount of radiation with radiolabeled thiouracil.
The inhibitory effect on melanin production of Compound 1 was evaluated using 2-thiouracil (^14C-labeled 2-thiouracil was used in this test) which is incorporated specifically into melanin in an intracellular melanin synthesis process. Complete medium for culture of melanocytes (manufactured by Kurabo Industries Ltd.) was added to 15 wells in a 24-well plate in an amount of 2 mL per well, and normal human melanocytes (manufactured by Kurabo Industries Ltd.) were seeded into the wells at a concentration of 1.5×10^4 cells/cm^2. The cells were cultured in a 5% carbon dioxide atmosphere at 37° C. for 24 hours. Thereafter, the medium in all the wells was exchanged under the following conditions: fresh complete medium for culture of melanocytes (control) was used in three wells; each of complete medium for culture of melanocytes, which including Compound 1 at concentrations of 1.0 μM, 2.0 μM, and 4.0 μM, was used in a total of nine wells including three wells for each concentration; and complete medium for culture of melanocytes, each of which including arbutin (positive control) known as a melanin production inhibitor at a concentration of 0.5 mM (500 μM), was used in the other three wells. Further, 2-[2-^14C]thiouracil (^14C-labeled thiouracil) was added to each of these 15 wells at 0.25×10^−6 Ci (curie). Then, the cells were cultured for further 3 days under the same conditions as the above. After the completion of culture, the culture medium was removed from the wells, and the cells were washed with phosphate buffered physiological saline (PBS) and then separated from the bottoms of the wells with medium including trypsin and EDTA to prepare cell suspensions, followed by centrifugation to collect the cells. The number of the cells was counted using a hemocytometer. Thereafter, the amounts of ^14C-thiouracil in the cells collected from each well (0.25×10^−6 Ci) were measured using a liquid scintillation counter (ALOKA CO., LTD.). The percentages of an amount of radioactivity in the cells cultured in the medium including the test substances with respect to an amount of radioactivity in the cells collected from the well of the control were calculated as amounts of melanin (%). That is, as the amount of radioactivity incorporated into the cells is smaller, the amount of melanin is evaluated to be smaller, i.e., the melanin inhibition effect of the component added is evaluated to be larger.
Inhibitory effects on melanin production of Compounds 2 to 39 (however, the effects of Compound 9 and 15 were not measured) were examined in the same procedure as in Test Example 1.
These were examined in the same procedure as in Test Example 1.
Further, the results of melanin production inhibition by treatment with the respective test compounds, determined in the same procedure as in Test Example 1, are also shown in the table.

[2] = minimum concentration at which the growth inhibition rate is 80% or more
[3] = Homo sapiens, Melanocyte, Table 7, treatment concentration 4 μM, read-out: Amount of melanin
[4] = Homo sapiens, Melanocyte, Table 7, read-out: Amount of melanin

## NC(c1ccccc1)c1ccccc1 [Aminodiphenylmethane]
[1]
  growth inhibitory effect on Trichopyton mentagrophytes (in words): no growth inhibitory effect
[1]; [2]
  MIC80: > 100 µg/mL
Normal human melanocytes; Homo sapiens, Melanocyte, Table 3, addition amount 40 μM, control = 100%
  activity at 40 µM: 36.6 ± 12.8%
Normal human melanocytes; Homo sapiens, Melanocyte, Table 7, treatment concentration 50 μM, read-out: Amount of melanin
  activity at 50 µM: 28.8 ± 2.03%

## Clc1ccccc1C(c1ccccc1)(c1ccccc1)n1ccnc1 [Clotrimazole, clotrimazole, reference compound]
[1]; concentration 0.1563 μg/mL, 120 hours
  inhibition at 0.1563 µg/mL: 27%
[1]; concentration 0.3125 μg/mL, 120 hours
  inhibition at 0.3125 µg/mL: 53%
[1]; concentration 0.6250 μg/mL, 120 hours
  inhibition at 0.625 µg/mL: 82.5%
[1]; concentration 1.2500 μg/mL, 120 hours
  inhibition at 1.25 µg/mL: 92.2%
[1]; concentration 2.5000 μg/mL, 120 hours
  inhibition at 2.5 µg/mL: 93.4%
[1]; concentration 5.0000 μg/mL, 120 hours
  inhibition at 5 µg/mL: 85.4%
[1]; concentration 10.0000 μg/mL, 120 hours
  inhibition at 10 µg/mL: 92.2%
[1]; concentration 100.0000 μg/mL, 120 hours
  inhibition at 100 µg/mL: 88.9%
[1]; [2]
  MIC80: 0.625 µg/mL (≈ 1.81 µM)
Normal human melanocytes; Homo sapiens, Melanocyte, Table 7, treatment concentration 2.5 μM, read-out: Amount of melanin
  activity at 2.5 µM: 23.2%
Normal human melanocytes; Table 7, treatment concentration 2.5 μM
  Amount of melanin: 23.2 ± 2.03 %/control

## c1ccc(C(c2ccccc2)(c2ccccc2)n2ccnc2)cc1 [Compound 1, 1-(triphenylmethyl)imidazole]
[1]; [2]
  MIC80: 0.625 µg/mL (≈ 2.01 µM)
Normal human melanocytes; 1.0 μM Compound 1 compared with 0.5 mM arbutin
  inhibitory effect of melanin production relative to that of arbutin: ≥ 100 times
Normal human melanocytes; Homo sapiens, Melanocyte, addition amount 1.0 μM, control = 100%, mean ± SD of three samples
  activity at 1 µM: 63.8 ± 3.6%
Normal human melanocytes; Homo sapiens, Melanocyte, control = 100%, mean ± SD of three samples
  activity at 2 µM: 37 ± 5.3%
Normal human melanocytes; Homo sapiens, Melanocyte, addition amount 4.0 μM, control = 100%, mean ± SD of three samples
  activity at 4 µM: 29.2 ± 2.9%
Normal human melanocytes; [3]
  activity at 4 µM: 29.5 ± 2.5%

## c1ccc(C(c2ccccc2)(c2ccccc2)N2CCCCC2)cc1 [Compound 5, 1-(triphenylmethyl)piperidine]
[1]; 120 h
  inhibition at 0.1563 µg/mL: -4.5%
  inhibition at 0.3125 µg/mL: 8%
  inhibition at 0.625 µg/mL: -2.7%
  inhibition at 1.25 µg/mL: 3.1%
  inhibition at 2.5 µg/mL: -4.5%
  inhibition at 5 µg/mL: -17.5%
  inhibition at 10 µg/mL: -14.4%
  inhibition at 100 µg/mL: 13.2%
[1]
  MIC80: > 100 µg/mL
Normal human melanocytes; Homo sapiens, Melanocyte, Table 2, addition amount 1.5 μM, control = 100%
  activity at 1.5 µM: 37.7 ± 0.8%
Normal human melanocytes; [3]
  activity at 4 µM: 16.8 ± 0.96%

## c1ccc(C(c2ccccc2)(c2ccccc2)N2CCCC2)cc1 [Compound 6, 1-(triphenylmethyl)pyrrolidine]
[1]
  growth inhibitory effect on Trichopyton mentagrophytes (in words): no growth inhibitory effect
  MIC80: > 100 µg/mL
Normal human melanocytes; Homo sapiens, Melanocyte, Table 2, control = 100%
  activity at 2 µM: 32.6 ± 4.1%
Normal human melanocytes; [3]
  activity at 4 µM: 17.2 ± 0.8%

## Cc1ccc(C(O)c2ccc(C)cc2)cc1 [Compound 14, [bis(4-methylphenyl)]methanol]
[1]; [2]
  MIC80 Concentration: 100.0000 µg/mL (≈ 471 µM)
  MIC80: 100 µg/mL (≈ 471 µM)
Normal human melanocytes; Homo sapiens, Melanocyte, Table 2, addition amount 25 μM, control = 100%
  activity at 25 µM: 44.6 ± 5.6%
Normal human melanocytes; Homo sapiens, Melanocyte, Table 7, treatment concentration 40 μM, read-out: Amount of melanin
  activity at 40 µM: 37.9 ± 1.39%

## c1ccc(C(c2ccccc2)(c2ccncc2)n2ccnc2)cc1 [Compound 40, 1-[(diphenylpyridyl)methyl]imidazole]
[1]; [2]
  MIC80: 10 µg/mL (≈ 32.1 µM)
Normal human melanocytes; [4]
  activity at 20 µM: 44.7 ± 4.2%

## Cc1ccc(C(c2ccc(C)cc2)n2ccnc2)cc1 [Compound 41]
[1]; [2]
  MIC80: 5 µg/mL (≈ 19.1 µM)
Normal human melanocytes; [4]
  activity at 15 µM: 34.1 ± 2.58%

## c1ccc(C(c2ccccc2)c2ccccc2)cc1 [Triphenylmethane]
[1]
  growth inhibitory effect on Trichopyton mentagrophytes (in words): no growth inhibitory effect
  MIC80: > 100 µg/mL
Normal human melanocytes; [4]
  activity at 15 µM: 32.2 ± 1.82%
Normal human melanocytes; Homo sapiens, Melanocyte, Table 3, addition amount 10 μM, control = 100%
  activity at 10 µM: 42.3 ± 1.4%

## OC(c1ccccc1)(c1ccccc1)c1ccccc1 [Triphenylmethanol]
[1]; [2]
  MIC80 Concentration: 100.0000 µg/mL (≈ 384 µM)
  MIC80: 100 µg/mL (≈ 384 µM)
Normal human melanocytes; Homo sapiens, Melanocyte, Table 3, addition amount 7.5 μM, control = 100%
  activity at 7.5 µM: 41.3 ± 2.8%
Normal human melanocytes; [4]
  activity at 15 µM: 31.6 ± 2.39%

## NC(c1ccccc1)(c1ccccc1)c1ccccc1 [Triphenylmethylamine]
[1]
  growth inhibitory effect on Trichopyton mentagrophytes (in words): no growth inhibitory effect
[1]; [2]
  MIC80: > 100 µg/mL
Normal human melanocytes; Homo sapiens, Melanocyte, Table 3, addition amount 12.5 μM, control = 100%
  activity at 12.5 µM: 57.3 ± 1.6%
Normal human melanocytes; [4]
  activity at 20 µM: 23 ± 2.41%
